According to patent US8735443B2, “Method of treating diabetes-related vascular complications” (Kuwait University, priority 2008, dated 2014):

How the values were obtained:
NF-κB = test: Aortic nuclear NF-κB, western blotting; assay type: in vivo, rat; conditions: GK rats, LA chronic therapy
Protocol: For detection of caspase 3-like activity, protein was isolated and caspase activity was detected in resulting supernatant using an APO-ONE homogenous caspase 3/7 assay (Promega). With regard to subcellular fractionation and western blotting, aortic tissue nuclear extracts were prepared and protein (40 μg) was loaded in each well of […] polyacrylamide gel. Separated polypeptide was transferred to nitrocellulose membrane IBio-Rad) and probed with anti NFκB at a 1:2,000 […]. Chemiluminescent detection was performed by an ECL Western Blotting Detection Kit®.
It is well known that TNF-α enhances the activity of NF-κB, most probably via H202 mediated mechanisms. Using data showing that both TNF-α and H202 levels were elevated in diabetic vascular tissues, NF-κB activity was assessed using a western blotting-based technique with an antibody (anti P65) that specifically recognizes the active form of this transcription factor. […] Nuclear localization of NF-κB in aortic tissues was determined using differential centrifugation and western blotting-based techniques.

IL-6 = test: Aortic mRNA expression by QRT-PCR, IL-6; assay type: in vivo, rat; conditions: GK rats, LA therapy
Protocol: An expression of a number of inflammatory markers, including IL-6 and ICAM-1, were measured in control, diabetic and LA-treated diabetic vessels. The results confirmed marked elevation in the vascular expression of both […] and ICAM-1 during diabetes, as shown in FIGS. 11A and 11B. […] Aortic expression of IL-6 is shown in FIG. 11A and aortic expression of intracellular adhesion molecule (ICAM-1) is shown in FIG. 11B. Both were determined using QRT-PCR based techniques.

diabetic fibroblasts = test: Inflammatory cytokine transcription in fibroblasts, RT-PCR; assay type: cell-based, rat; conditions: lipoic acid 500 μM, Nrf2-dependent
Description: To determine the effect of α-lipoic acid on isolated cells from normal and diabetic rats, primary rat fibroblasts were derived from dorsal skin biopsies performed on four diabetic Coto Kakizaki rats (DFs) and four age-matched (12-14 months) and sex-matched (female) Wistar control rats (CFs). After sterilization in povidine solution, the rat skin was washed in sterile water and rinsed in 70% ethanol in phosphate-buffered saline (PBS). The epidermis and dermis were separated following overnight incubation in 0.25% Trypsin/EDTA at 4° C. Samples were washed, diced and digested for thirty minutes at 37° C. in collagenase type I (250 U/ml) dissolved in Dulbecco's modified Eagle medium (DMEM; Invitrogen) containing penicillin (100 U/ml), 2 mM L-glutamine and 26 mM HEPES. After collagenase treatment, the cells were dislodged, centrifuged and resuspended in medium supplemented with 10% fetal bovine serum. […]
With regard to cytokine transcription levels, Total RNA was isolated from cultured fibroblasts using Trizol reagent (Invitrogen) and 1 μg from each sample was reverse transcribed for 1 hr at 37° C. using the High Capacity cDNA Reverse Transcription Kit. Real-time quantitative RT-PCR was performed with the TaqMan Gene Expression Assay and was normalized against […] using an ABI 7900 Real-time PCR System (Applied Biosystems). […]

[1] = test system: diabetic fibroblasts (DFs); test: Cell viability after hydrogen peroxide (Cell Counting Kit-8), diabetic fibroblasts; assay type: cell-based, rat; conditions: diabetic fibroblasts, lipoic acid 500 μM, Nrf2-dependent
Description: To determine the effect of α-lipoic acid on isolated cells from normal and diabetic rats, primary rat fibroblasts were derived from dorsal skin biopsies performed on four diabetic Coto Kakizaki rats (DFs) and four age-matched (12-14 months) and sex-matched (female) Wistar control rats (CFs). After sterilization in povidine solution, the rat skin was washed in sterile water and rinsed in 70% ethanol in phosphate-buffered saline (PBS). The epidermis and dermis were separated following overnight incubation in 0.25% Trypsin/EDTA at 4° C. Samples were washed, diced and digested for thirty minutes at 37° C. in collagenase type I (250 U/ml) dissolved in Dulbecco's modified Eagle medium (DMEM; Invitrogen) containing penicillin (100 U/ml), 2 mM L-glutamine and 26 mM HEPES. After collagenase treatment, the cells were dislodged, centrifuged and resuspended in medium supplemented with 10% fetal bovine serum. The cells were grown under standard conditions, and the medium was changed every three to four days. Control and diabetic fibroblasts were grown under normo-glycemic conditions (5.5 mM glucose) and used in experiments at passage 3 to 5.
Fibroblasts were seeded at 1×10^4 cells/well on a 96-well plate. After a 24 hour incubation period, the cells were exposed to various concentrations of HP in serum-free medium at 37° C. for 2 hours [lactate dehydrogenase (LDH), a marker for necrotic cell death], or for 16 hours (cell viability). Quantification of cell viability was assessed using a Cell Counting Kit-8 (Dojindo, Kumamoto, Japan). The values obtained were normalized to the vehicle-treated cells. To measure the rate of necrotic cell death, an LDH release assay was performed using a CytoTox-ONE Homogeneous Membrane Integrity Assay kit (Promega). Expression of Nrf2 was inhibited by small-interfering RNA (siRNA) oligonucleotides. The sequences were designed and synthesized by Qiagen. The best silencing efficiency was obtained by incubating 2.0×10^5 cells/well in a 6-well plate with complexes formed by 5 nM siRNA (1 μl) and 9 μL of HiPerfect transfection reagent (Qiagen) dissolved in 90 μl medium, according to the manufacturer's instructions. The transfection was achieved by adding 0.9 ml of medium to the seeded cells followed by 100 μl of siRNA/HiPerfect complex. Knock-out efficiency was verified by real-time PCR and Western blot. Twenty-four hours later, 1 ml of fresh medium was added; 48 hr after transfection the cells were exposed to either vehicle or lipoic acid at a concentration of 500 μM.

protein-bound carbonyls = test: Aortic content of protein-bound carbonyls; conditions: aorta of LA-treated GK rats

## O=C(O)CCCCC1CCSS1 (stereo not drawn) [LA, alpha-lipoic acid]
NF-κB
  high NF-κB level in vascular diabetic nuclei: reversed
IL-6
  diabetic vascular proinflammatory phenotype, aortic expression of IL-6: partially reversed
Diabetic fibroblasts
  transcription of inflammatory cytokines in diabetic fibroblasts: decreases
[1]
  protection of cell viability from hydrogen peroxide: protected
protein-bound carbonyls
  oxidative stress-mediated damage to protein (protein-bound carbonyls): partially reversed
